{"source": "ChEMBL document CHEMBL5465560", "about": "“Selectivity Literature for EUbOPEN Chemogenomic Library” (2024)", "key": {"[1]": {"target": "Receptor tyrosine-protein kinase erbB-2 (Homo sapiens, UniProt P04626)", "sequence (P04626 whole entry)": "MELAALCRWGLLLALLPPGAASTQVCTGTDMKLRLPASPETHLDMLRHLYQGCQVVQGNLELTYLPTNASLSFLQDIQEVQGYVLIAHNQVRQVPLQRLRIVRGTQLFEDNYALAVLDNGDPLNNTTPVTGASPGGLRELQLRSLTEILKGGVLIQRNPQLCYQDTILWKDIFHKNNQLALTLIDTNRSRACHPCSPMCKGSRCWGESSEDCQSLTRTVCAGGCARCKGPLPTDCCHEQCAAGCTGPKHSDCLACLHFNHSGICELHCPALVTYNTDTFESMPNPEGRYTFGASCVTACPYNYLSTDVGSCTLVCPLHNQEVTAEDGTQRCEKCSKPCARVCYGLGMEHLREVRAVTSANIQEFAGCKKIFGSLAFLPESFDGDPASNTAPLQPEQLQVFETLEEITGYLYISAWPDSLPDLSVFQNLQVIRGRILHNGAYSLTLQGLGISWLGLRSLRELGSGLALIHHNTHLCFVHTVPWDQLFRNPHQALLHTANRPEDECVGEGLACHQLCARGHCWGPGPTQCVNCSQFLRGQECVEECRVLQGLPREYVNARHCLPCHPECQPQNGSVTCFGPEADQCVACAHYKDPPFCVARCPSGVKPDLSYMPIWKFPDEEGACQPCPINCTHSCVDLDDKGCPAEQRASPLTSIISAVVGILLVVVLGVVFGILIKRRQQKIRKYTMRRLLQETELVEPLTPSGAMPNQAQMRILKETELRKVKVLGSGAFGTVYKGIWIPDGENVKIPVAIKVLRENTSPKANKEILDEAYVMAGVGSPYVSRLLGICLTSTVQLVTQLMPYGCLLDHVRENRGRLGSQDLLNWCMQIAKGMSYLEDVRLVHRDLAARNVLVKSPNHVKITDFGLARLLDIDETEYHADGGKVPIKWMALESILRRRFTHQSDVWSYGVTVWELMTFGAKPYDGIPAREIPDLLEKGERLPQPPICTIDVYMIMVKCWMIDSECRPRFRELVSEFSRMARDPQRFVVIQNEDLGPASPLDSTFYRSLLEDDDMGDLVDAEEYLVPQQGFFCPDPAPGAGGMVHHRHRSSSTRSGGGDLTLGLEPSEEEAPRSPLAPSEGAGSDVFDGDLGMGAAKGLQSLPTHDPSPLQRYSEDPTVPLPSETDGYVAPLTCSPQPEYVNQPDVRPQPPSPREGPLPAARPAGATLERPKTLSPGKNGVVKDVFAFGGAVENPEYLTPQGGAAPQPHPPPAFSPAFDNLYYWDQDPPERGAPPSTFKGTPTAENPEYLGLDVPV", "test": "Selectivity interaction (Rxn Biology Kinase assay) EUB0001632a ERBB2", "settings": "at 10 µM"}, "[2]": {"target": "Tyrosine-protein kinase Fes/Fps (Homo sapiens) (UniProt P07332)", "sequence (P07332 whole entry)": "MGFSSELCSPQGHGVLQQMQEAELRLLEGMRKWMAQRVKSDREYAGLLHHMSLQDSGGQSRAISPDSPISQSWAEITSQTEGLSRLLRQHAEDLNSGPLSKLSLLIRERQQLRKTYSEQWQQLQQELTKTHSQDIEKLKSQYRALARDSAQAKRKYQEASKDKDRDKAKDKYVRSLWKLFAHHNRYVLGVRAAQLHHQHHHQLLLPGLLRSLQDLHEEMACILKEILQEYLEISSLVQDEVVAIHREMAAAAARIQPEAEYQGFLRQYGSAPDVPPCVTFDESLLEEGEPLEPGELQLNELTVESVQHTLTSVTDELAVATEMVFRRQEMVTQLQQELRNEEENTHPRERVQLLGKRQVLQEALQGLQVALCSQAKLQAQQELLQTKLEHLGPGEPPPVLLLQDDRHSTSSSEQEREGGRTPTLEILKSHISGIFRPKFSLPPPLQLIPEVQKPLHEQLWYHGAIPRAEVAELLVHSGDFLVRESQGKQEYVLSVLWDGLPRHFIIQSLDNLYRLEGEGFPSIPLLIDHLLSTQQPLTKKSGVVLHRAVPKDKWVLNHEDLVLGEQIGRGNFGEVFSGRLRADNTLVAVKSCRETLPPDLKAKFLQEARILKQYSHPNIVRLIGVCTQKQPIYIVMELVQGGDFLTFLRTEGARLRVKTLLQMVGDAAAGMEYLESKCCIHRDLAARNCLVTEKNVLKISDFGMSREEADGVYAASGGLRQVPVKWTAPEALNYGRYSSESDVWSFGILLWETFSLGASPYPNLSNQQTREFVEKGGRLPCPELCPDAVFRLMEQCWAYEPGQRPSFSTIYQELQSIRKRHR", "test": "Selectivity interaction (KinomeScan (DiscoverX)) EUB0000695a FES", "settings": "at 100 nM"}, "[3]": {"target": "Fibroblast growth factor receptor 4 (Homo sapiens, UniProt P22455)", "sequence (P22455 22-802 limits assumed)": "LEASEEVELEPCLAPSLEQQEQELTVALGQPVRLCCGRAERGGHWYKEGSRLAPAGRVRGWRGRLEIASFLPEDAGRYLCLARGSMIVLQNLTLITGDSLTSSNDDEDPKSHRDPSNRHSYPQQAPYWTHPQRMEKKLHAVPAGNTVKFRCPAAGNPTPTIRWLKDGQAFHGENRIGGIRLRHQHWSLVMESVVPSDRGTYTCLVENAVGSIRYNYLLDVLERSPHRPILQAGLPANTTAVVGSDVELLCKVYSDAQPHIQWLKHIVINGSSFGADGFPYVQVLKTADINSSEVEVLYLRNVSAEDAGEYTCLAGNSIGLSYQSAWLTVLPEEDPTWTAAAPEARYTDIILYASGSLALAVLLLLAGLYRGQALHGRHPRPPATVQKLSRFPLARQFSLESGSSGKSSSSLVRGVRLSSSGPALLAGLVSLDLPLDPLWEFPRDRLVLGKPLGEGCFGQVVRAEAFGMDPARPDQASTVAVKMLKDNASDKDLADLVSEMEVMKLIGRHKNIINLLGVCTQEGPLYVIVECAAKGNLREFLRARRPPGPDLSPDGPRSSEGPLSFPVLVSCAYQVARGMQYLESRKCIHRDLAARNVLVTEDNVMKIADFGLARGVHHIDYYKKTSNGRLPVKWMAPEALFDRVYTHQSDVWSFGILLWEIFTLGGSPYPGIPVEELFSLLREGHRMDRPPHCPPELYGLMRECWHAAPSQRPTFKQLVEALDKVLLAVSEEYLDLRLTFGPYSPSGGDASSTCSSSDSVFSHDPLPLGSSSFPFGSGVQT", "test": "Selectivity interaction (KinomeScan (DiscoverX)) EUB0001079a FGFR4", "settings": "at 1 µM"}, "[4]": {"target": "T1, Serine/threonine-protein kinase DCLK1 (Homo sapiens) (UniProt O15075)", "T1 sequence (whole entry)": "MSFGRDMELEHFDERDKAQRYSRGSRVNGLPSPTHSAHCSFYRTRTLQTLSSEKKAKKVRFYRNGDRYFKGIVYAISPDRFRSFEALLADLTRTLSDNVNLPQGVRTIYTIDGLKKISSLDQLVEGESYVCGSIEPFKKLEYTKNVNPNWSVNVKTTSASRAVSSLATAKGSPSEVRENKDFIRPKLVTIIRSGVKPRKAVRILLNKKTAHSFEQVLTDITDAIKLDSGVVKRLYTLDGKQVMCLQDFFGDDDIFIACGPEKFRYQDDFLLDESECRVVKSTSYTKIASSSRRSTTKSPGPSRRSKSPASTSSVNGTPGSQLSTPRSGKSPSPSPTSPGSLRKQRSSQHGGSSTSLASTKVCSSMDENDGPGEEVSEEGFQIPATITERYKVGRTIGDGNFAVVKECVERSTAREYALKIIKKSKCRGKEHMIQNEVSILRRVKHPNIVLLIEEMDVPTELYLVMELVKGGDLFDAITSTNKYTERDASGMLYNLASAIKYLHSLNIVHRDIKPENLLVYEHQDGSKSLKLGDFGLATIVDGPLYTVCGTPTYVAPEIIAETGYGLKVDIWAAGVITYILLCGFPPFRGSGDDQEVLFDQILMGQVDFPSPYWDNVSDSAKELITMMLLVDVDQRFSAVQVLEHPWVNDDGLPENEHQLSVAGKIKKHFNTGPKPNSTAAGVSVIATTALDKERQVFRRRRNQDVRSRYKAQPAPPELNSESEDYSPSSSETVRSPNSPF", "test": "Selectivity interaction (KinomeScan (DiscoverX)) EUB0000092b DCLK1", "settings": "at 10 µM"}, "[5]": {"target": "Cyclin-dependent kinase 17 (Homo sapiens) (UniProt Q00537)", "sequence (Q00537 whole entry, looked up)": "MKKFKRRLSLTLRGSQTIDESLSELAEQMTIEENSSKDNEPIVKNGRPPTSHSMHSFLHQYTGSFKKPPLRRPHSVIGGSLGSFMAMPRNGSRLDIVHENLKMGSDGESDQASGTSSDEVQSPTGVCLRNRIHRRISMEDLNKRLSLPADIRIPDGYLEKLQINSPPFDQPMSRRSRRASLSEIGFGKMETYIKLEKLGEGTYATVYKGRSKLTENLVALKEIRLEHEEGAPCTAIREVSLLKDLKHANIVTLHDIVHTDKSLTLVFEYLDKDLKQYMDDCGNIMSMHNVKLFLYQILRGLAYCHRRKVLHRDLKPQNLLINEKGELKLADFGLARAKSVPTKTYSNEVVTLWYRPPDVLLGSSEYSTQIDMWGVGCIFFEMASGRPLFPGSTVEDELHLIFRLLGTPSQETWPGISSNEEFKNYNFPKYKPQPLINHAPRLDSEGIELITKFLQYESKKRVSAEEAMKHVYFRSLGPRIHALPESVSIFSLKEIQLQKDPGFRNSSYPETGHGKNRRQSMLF", "test": "Selectivity interaction (KinomeScan (DiscoverX)) EUB0000045b CDK17"}, "[6]": {"target": "T2, Phosphatidylinositol 5-phosphate 4-kinase type-2 beta (Homo sapiens) (UniProt P78356)", "T2 sequence (whole entry)": "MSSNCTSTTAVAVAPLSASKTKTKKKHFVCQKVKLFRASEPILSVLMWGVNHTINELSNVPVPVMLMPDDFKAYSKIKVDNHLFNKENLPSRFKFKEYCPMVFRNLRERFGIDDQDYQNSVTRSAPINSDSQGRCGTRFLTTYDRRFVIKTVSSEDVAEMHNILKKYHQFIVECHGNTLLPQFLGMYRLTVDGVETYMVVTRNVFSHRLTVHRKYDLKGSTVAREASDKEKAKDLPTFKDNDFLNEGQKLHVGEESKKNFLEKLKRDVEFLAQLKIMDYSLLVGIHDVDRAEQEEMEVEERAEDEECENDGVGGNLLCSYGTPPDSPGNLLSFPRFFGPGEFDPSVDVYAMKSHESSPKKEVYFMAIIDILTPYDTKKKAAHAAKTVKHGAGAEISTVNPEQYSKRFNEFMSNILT", "test": "Selectivity interaction (KinomeScan (DiscoverX)) EUB0000655a PIP4K2B", "settings": "at 10 µM"}, "[7]": {"target": "Serine/threonine-protein kinase pim-3 (Homo sapiens) (UniProt Q86V86)", "test": "Selectivity interaction (Kinase panel (DSF assay)) EUB0001559a PIM3"}, "[8]": {"target": "T3, Histone-lysine N-methyltransferase SETD7 (Homo sapiens) (UniProt Q8WTS6)", "T3 sequence (whole entry)": "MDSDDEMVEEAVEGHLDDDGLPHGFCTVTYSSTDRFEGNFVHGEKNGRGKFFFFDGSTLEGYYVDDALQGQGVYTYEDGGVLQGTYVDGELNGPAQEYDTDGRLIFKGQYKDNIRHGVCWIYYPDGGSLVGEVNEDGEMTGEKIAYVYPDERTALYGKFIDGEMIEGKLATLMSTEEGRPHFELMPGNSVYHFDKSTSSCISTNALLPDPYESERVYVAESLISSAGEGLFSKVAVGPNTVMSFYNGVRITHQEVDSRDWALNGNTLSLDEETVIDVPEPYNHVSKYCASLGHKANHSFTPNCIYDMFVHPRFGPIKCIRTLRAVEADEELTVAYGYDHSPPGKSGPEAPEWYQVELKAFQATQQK", "test": "Selectivity interaction (Methyltransferase screen (Scintillation proximity assays)) EUB0000255b SETD7"}, "[9]": {"target": "Serine/threonine-protein kinase MRCK alpha (Homo sapiens) (UniProt Q5VT25)", "test": "Selectivity interaction (Kinase panel (DSF assay)) EUB0001558a CDC42BPA"}}, "data": [{"smiles": "Cn1cc(-n2cnc3c(NCc4nc5cc(Cl)c(Cl)cc5[nH]4)nc(N4CCOCC4)nc32)cn1", "values": [{"measurement": "% of inhibition", "setting": "[1]", "result": 2.6, "unit": "%"}]}, {"smiles": "Cc1cc(F)c(C(=O)Nc2cccc(-c3nncn3C(C)C)n2)cc1-n1cnc(C2CC2)c1", "values": [{"measurement": "% of control", "setting": "[2]", "result": 100, "unit": "%"}]}, {"smiles": "Nc1cnc(N2CCc3cc(S(=O)(=O)Nc4c(F)cc(Cl)cc4F)cc(N4CCCC4=O)c32)nc1", "note": "[TP-020n]", "values": [{"measurement": "% of control", "setting": "[3]", "result": 100, "unit": "%"}]}, {"smiles": "CCC(=O)N1CCN(c2ccc(-n3c(=O)ccc4cnc5ccc(-c6cnc7ccccc7c6)cc5c43)cc2C(F)(F)F)CC1", "values": [{"measurement": "% of control", "setting": "[4]", "result": 100, "unit": "%"}]}, {"smiles": "C=CC(=O)Nc1cc(-n2c(=O)ccc3cnc4ccc(-c5ccc(NS(C)(=O)=O)cc5)cc4c32)ccc1C", "values": [{"measurement": "% of control", "setting": "[5]; at 1 µM", "result": 100, "unit": "%"}, {"measurement": "% of control", "setting": "[5]; at 10 µM", "result": 95, "unit": "%"}]}, {"smiles": "CN(C)CCOc1ccc(-c2nc(-c3ccncc3)c(-c3ccc4c(c3)CC/C4=N\\O)[nH]2)cc1", "values": [{"measurement": "% of control", "setting": "[6]", "result": 94, "unit": "%"}]}, {"smiles": "CN(C(=O)c1cnn2cccnc12)c1cc2c(cc1N1CCOCC1)C(=O)N(C[C@@H](F)C(C)(C)O)C2", "values": [{"measurement": "dTM", "setting": "[7]", "result": -0.4, "unit": "K"}]}, {"smiles": "COCCN1CCC(c2cc(CN(C)C(=O)c3cccc(Oc4ccccc4)c3)ccn2)CC1", "values": [{"measurement": "% activity", "setting": "[8]; at 1 µM", "result": "> 95", "unit": "%"}, {"measurement": "% activity", "setting": "[8]; at 10 µM", "result": "> 90", "unit": "%"}]}, {"smiles": "CC(C)(O)[C@H](F)CN1Cc2cc(NC(=O)c3cnn4cccnc34)c(N3CCOCC3)cc2C1=O", "values": [{"measurement": "dTM", "setting": "[9]", "result": 0.2, "unit": "K"}]}]}
